Values of other authors, collected in US9682109B2, “Antiviral resistance mutants and applications thereof” (ABL SA, priority 2005, dated 2017).
Structures can show the parent of a compound that is named as a salt.

Key:
[1] = system: wild-type and lamivudine-resistant strains of HBV
HBV [2] = details: 30 mg daily dose, over 12 weeks, phase II studies (Heathcote et al 1998)
HBV [3] = system: HBV

Structure (SMILES)	clinical activity [1]	inhibitor of HBV replication (HBV replication)	mean decrease in viremia (HBV [2])	antiviral activity against HBV (HBV [3])	antiviral activity against HIV (HIV)
CC(C)(C)C(=O)OCOP(=O)(COCCn1cnc2c(N)ncnc21)OCOC(=O)C(C)(C)C [ADV, adefovir dipivoxil]	demonstrated clinical activity	potent inhibitor	4 log10	–	–
Nc1nc(=O)n([C@@H]2CS[C@H](CO)O2)cc1F [FTC, (−)-β-L-2′-3′-dideoxy-5-fluoro-3′-thiacydidine]	–	–	–	activity	activity
CC(C)OC(=O)OCOP(=O)(CO[C@H](C)Cn1cnc2c(N)ncnc21)OCOC(=O)OC(C)C [TFV, tenofovir disoproxil fumarate]	–	–	–	antiviral activity	antiviral activity
